Test results as given in patent publication US8779140B2, “Crystal of fused pyridine compound salt” (Astellas Pharma Inc., priority 2010, dated 2014).
One block for each compound: values may come before it.

Legend:
[1] = Stability test of crystals (storage at 70° C., 70° C./75% RH, Xe lamp; HPLC related substances and powder X-ray diffraction); details: for Physical stability / change in the crystal forms: stored at 70° C. or 70° C.·75% RH for 2 weeks
Protocol: A sample was stored with light-shielding under the condition of 70° C., 70° C.·75% RH for 2 weeks. The total amount of the related substance after storage was measured using HPLC, and the change in crystal forms was measured by means of powder X-ray diffraction.
The test drug was stored under the following conditions.
Initial (Stored under the cooling conditions): About 5 mg was collected with a 10 mL centrifuge tube and stored in a refrigerator.
70° C. (stored at 70° C.): About 5 mg was collected with a 10 mL centrifuge tube and stored in a mini-jet oven at 70° C. for 14 days.
70° C.·75% RH (stored at 70° C. and 75% relative humidity): About 5 mg was collected with a 10 mL centrifuge tube, a sample was put into a desiccator at 75% relative humidity in the open state, and the desiccator was stored in a mini jet oven at 70° C. for 14 days.
Xe lamp: This product was placed in a plastic Petri dish and stored for 40 hours under a Xe lamp (25° C. RH 60%, total irradiance 1,200,000 lx·h, total near-ultraviolet radiation energy 200 W·h/m^2 or more).
Initial, a product stored at 70° C. and a product stored at 70° C. and 75% RH were dissolved in a mixed solution (1:1) of MeCN for LC/water to exactly 10 mL, which was used as a sample solution.
HPLC; Detector: ultraviolet absorptiometer (wavelength measurement; 254 nm), column: Inertsil ODS-3 (particle diameter 3 μm, 2.1 mm×100 mm), column temperature: 40° C. (column thermostat vessel was used), mobile phase: Liquid A—1000 mL of water was added to perchlorate buffer at pH 2.5 {sodium perchlorate (NaClO4.H2O) (1.40 g) for dissolution, and adjusted to a pH of 2.5 with diluted perchloric acid (dilution of 100 mL of a commercially available 60% perchloric acid solution with 1900 mL of water)}. Liquid B—MeCN for LC, flow rate: 0.2 mL/min, Injection amount: 1 μL, (gradient setting: Liquid B 10% at 0.0 minutes to Liquid B 90% at 35 minutes).
Powder X-ray diffraction; tube: Cu, tube current: 300 mA, tube voltage, 50 kV, sampling width: 0.02°, scan speed: 4°/min, wavelength: 1.54056 angstroms, measured diffraction angle range (2θ): 2.5 to 40°

JAK3 = biological target: T1, JAK3 (Homo sapiens, UniProt P52333); details: as described in Patent Document 1; cited from earlier work
T1 sequence (P52333 1-1124): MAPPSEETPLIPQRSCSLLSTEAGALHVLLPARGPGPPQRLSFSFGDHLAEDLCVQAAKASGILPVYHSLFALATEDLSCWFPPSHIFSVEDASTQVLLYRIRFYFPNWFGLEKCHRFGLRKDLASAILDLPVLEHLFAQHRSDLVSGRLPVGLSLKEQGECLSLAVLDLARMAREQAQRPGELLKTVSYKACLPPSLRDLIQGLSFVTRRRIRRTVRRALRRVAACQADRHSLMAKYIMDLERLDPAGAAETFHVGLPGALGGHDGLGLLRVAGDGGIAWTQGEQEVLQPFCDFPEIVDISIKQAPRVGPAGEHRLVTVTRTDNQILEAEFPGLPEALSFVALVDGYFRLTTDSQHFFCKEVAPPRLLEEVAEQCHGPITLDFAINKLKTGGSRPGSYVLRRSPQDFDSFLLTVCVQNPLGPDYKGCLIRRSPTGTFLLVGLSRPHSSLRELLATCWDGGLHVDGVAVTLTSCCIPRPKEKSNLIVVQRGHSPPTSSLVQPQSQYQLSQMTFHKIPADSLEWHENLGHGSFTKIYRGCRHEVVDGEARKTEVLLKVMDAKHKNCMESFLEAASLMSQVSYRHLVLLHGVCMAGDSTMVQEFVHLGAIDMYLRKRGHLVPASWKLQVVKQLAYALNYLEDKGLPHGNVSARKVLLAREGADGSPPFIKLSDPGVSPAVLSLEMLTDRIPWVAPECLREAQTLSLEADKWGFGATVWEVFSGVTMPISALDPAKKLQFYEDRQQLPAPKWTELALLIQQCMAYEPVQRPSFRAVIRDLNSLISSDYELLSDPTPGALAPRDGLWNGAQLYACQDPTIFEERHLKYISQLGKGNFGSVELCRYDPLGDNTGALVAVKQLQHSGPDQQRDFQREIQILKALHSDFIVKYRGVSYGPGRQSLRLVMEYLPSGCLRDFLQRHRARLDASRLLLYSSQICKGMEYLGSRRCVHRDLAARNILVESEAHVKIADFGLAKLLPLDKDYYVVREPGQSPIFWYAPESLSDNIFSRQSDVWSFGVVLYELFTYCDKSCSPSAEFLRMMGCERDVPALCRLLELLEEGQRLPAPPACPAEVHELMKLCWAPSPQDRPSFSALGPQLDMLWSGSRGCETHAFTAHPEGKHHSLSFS

[2] = Solubility measured with a 80% aqueous EtOH solution; format: physicochemical; details: organic solvent or mixture
Protocol: The solubility was measured with a 80% aqueous EtOH solution. Further, the crystals of 0.5 L-tartrate and lactate were prepared as crystallized from a crystallization solvent described in Tables below.

[3] = Solubility test in 84% aqueous EtOH solution; format: physicochemical
Protocol: After stirring, the supernatant was filtered and the concentration of the filtrate was quantified by means of HPLC.
HPLC; Columns to be charged: Unison UK Phenyl (manufactured by Imtakt Corporation), particle diameter 3 μm, 4.6 mm×250 mm
Mobile phase: perchlorate buffer at pH 2.5 (0.01 mol/L)^(note)/mixed solution with MeCN for LC (4:1),
Flow rate of mobile phase: about 1.0 mL/min. Detector: ultraviolet absorptiometer (wavelength for measurement: 235 nm), column temperature: 50° C. (column thermostat vessel was used)

[4] = stirred at room temperature in a 84% EtOH solution
Description: The Form A61 crystals were stirred at room temperature and transition of crystal forms was attempted in a 84% EtOH solution.

[5] = 70° C. 75% RH, 2 weeks, Table 1, hydrobromide
[6] = 70° C., 2 weeks, Table 1, hydrobromide
[7] = Initial (stored in a refrigerator), Table 1, hydrobromide
[8] = Xe lump 40H, Table 1, hydrobromide
[9] = 70° C. 75% RH, 2 weeks, Table 1
[10] = Initial (stored in a refrigerator), Table 1

- Solubility rank among crystal forms [3]: lowest solubility crystal form
- Solubility ([3]; 25° C., hydrobromide): 23.7 g/L
- Solubility ([3]; 35° C., hydrobromide): 29.4 g/L
- Solubility ([3]; 50° C., hydrobromide): 36.7 g/L
- LC: total amount of the related substances [1, 5]: 0.11%
- LC: total amount of the related substances [1, 6]: 0.11%
- LC: total amount of the related substances [1, 7]: 0.11%
- LC: total amount of the related substances [1, 8]: 0.11%
- Physical stability / change in the crystal forms [1]: physically stable
Structure (SMILES): Br.NC(=O)c1cnc2[nH]ccc2c1N[C@@H]1[C@@H]2C[C@@H]3C[C@H]1C[C@@](O)(C3)C2 [Form B45, 4-{[(1R,2s,3S,5s,7s)-5-hydroxy-2-adamantyl]amino}-1H-pyrrolo[2,3-b]pyridine-5-carboxamide hydrobromide]

- Solubility ([3]; 25° C., hydrobromide): 36.8 g/L
- Solubility ([3]; 35° C., hydrobromide): 46.0 g/L
- Solubility ([3]; 50° C., hydrobromide): 48.9 g/L
- LC: total amount of the related substances [1, 5]: 1.51%
- LC: total amount of the related substances [1, 6]: 1.64%
- LC: total amount of the related substances [1, 7]: 1.60%
- LC: total amount of the related substances [1, 8]: 1.32%
- Physical stability / change in the crystal forms [1]: physically stable
Structure (SMILES): Br.NC(=O)c1cnc2[nH]ccc2c1N[C@@H]1[C@@H]2C[C@@H]3C[C@H]1C[C@@](O)(C3)C2 [Form A87, 4-{[(1R,2s,3S,5s,7s)-5-hydroxy-2-adamantyl]amino}-1H-pyrrolo[2,3-b]pyridine-5-carboxamide hydrobromide]

- Solubility ([3]; 25° C., hydrobromide): 37.2 g/L
- Solubility ([3]; 35° C., hydrobromide): 45.5 g/L
- Solubility ([3]; 50° C., hydrobromide): 53.8 g/L
- LC: total amount of the related substances [1, 5]: 0.43%
- LC: total amount of the related substances [1, 6]: 0.44%
- LC: total amount of the related substances [1, 7]: 0.44%
- LC: total amount of the related substances [1, 8]: 0.77%
- Physical stability / change in the crystal forms [1]: physically stable
Structure (SMILES): Br.NC(=O)c1cnc2[nH]ccc2c1N[C@@H]1[C@@H]2C[C@@H]3C[C@H]1C[C@@](O)(C3)C2 [Form A61, 4-{[(1R,2s,3S,5s,7s)-5-hydroxy-2-adamantyl]amino}-1H-pyrrolo[2,3-b]pyridine-5-carboxamide hydrobromide]
- Transition of crystal form [4]: underwent transition to a Form B45 after 4 hours

- LC: total amount of the related substances ([1]; 70° C. 75% RH, 2 weeks, Table 1, monohydrobromide): 0.28%
- LC: total amount of the related substances ([1]; 70° C., 2 weeks, Table 1, monohydrobromide): 0.34%
- LC: total amount of the related substances ([1]; Initial (stored in a refrigerator), Table 1, monohydrobromide): 0.43%
- LC: total amount of the related substances ([1]; Xe lump 40H, Table 1, monohydrobromide): 0.76%
Structure (SMILES): Br.NC(=O)c1cnc2[nH]ccc2c1N[C@@H]1[C@@H]2C[C@@H]3C[C@H]1C[C@@](O)(C3)C2 [Form A36, 4-{[(1R,2s,3S,5s,7s)-5-hydroxy-2-adamantyl]amino}-1H-pyrrolo[2,3-b]pyridine-5-carboxamide monohydrobromide]

- Change of crystal on storage ([1]; with humidity at 70° C.): changed to hydrate
Structure (SMILES): NC(=O)c1cnc2[nH]ccc2c1N[C@@H]1[C@@H]2CC3C[C@H]1C[C@@](O)(C3)C2 [anhydride in a free form, reference compound]

- Solubility ([3]; 25° C.): 36.1 g/L
- Solubility ([3]; 35° C.): 46.3 g/L
- Solubility ([3]; 50° C.): 58.2 g/L
- LC: total amount of the related substances [1, 9]: 0.05%
- LC: total amount of the related substances ([1]; 70° C., 2 weeks, Table 1): 0.05%
- LC: total amount of the related substances [1, 10]: 0.00%
- LC: total amount of the related substances ([1]; Xe lump 40H, Table 1): 0.05%
Structure (SMILES): Br.NC(=O)c1cnc2[nH]ccc2c1N[C@@H]1[C@@H]2C[C@@H]3C[C@H]1C[C@@](O)(C3)C2.O.O [Form B21, 4-{[(1R,2s,3S,5s,7s)-5-hydroxy-2-adamantyl]amino}-1H-pyrrolo[2,3-b]pyridine-5-carboxamide hydrobromide dihydrate]

- Solubility ([3]; 25° C.): 35.0 g/L
- Solubility ([3]; 35° C.): 44.1 g/L
- Solubility ([3]; 50° C.): 60.1 g/L
- LC: total amount of the related substances [1, 9]: 0.43%
- LC: total amount of the related substances ([1]; 70° C., 2 weeks, Table 1): 0.43%
- LC: total amount of the related substances [1, 10]: 0.43%
- LC: total amount of the related substances ([1]; Xe lump 40H, Table 1): 0.48%
Structure (SMILES): Br.NC(=O)c1cnc2[nH]ccc2c1N[C@@H]1[C@@H]2C[C@@H]3C[C@H]1C[C@@](O)(C3)C2.O [Form B11, 4-{[(1R,2s,3S,5s,7s)-5-hydroxy-2-adamantyl]amino}-1H-pyrrolo[2,3-b]pyridine-5-carboxamide hydrobromide monohydrate]

Further lines, the compound ahead of its results:

Structure (SMILES): Br.NC(=O)c1cnc2[nH]ccc2c1N[C@@H]1[C@@H]2C[C@@H]3C[C@H]1C[C@@](O)(C3)C2 [hydrobromide, 4-{[(1R,2s,3S,5s,7s)-5-hydroxy-2-adamantyl]amino}-1H-pyrrolo[2,3-b]pyridine-5-carboxamide hydrobromide]
- Storage stability in a solid state [1]: excellent storage stability in a solid state

Structure (SMILES): NC(=O)c1cnc2[nH]ccc2c1N[C@@H]1[C@@H]2CC3C[C@H]1C[C@@](O)(C3)C2 [Ex. 121, 4-{[(1R,2s,3S,5s,7s)-5-hydroxy-2-adamantyl]amino}-1H-pyrrolo[2,3-b]pyridine-5-carboxamide]
- JAK3 inhibitory activity (JAK3): excellent activity
- Stability with respect to temperature and humidity ([1]; crystallized free form): not stable with respect to temperature and humidity even when crystallized

Structure (SMILES): NC(=O)c1cnc2[nH]ccc2c1N[C@@H]1[C@@H]2C[C@@H]3C[C@H]1C[C@@](O)(C3)C2.O=C(O)CCC(=O)O [Form A24, 4-{[(1R,2s,3S,5s,7s)-5-hydroxy-2-adamantyl]amino}-1H-pyrrolo[2,3-b]pyridine-5-carboxamide succinate]
- LC: total amount of the related substances ([1]; 70° C. 2 W, Table 3): 0.19%
- LC: total amount of the related substances ([1]; 70° C. 75% RH 2 W, Table 3): 0.25%
- LC: total amount of the related substances ([1]; Initial, Table 3): 0.25%
- LC: total amount of the related substances ([1]; Xe lump 40H, Table 3): 0.19%

Structure (SMILES): NC(=O)c1cnc2[nH]ccc2c1N[C@@H]1[C@@H]2CC3C[C@H]1C[C@@](O)(C3)C2 [Form A01, 4-{[(1R,2s,3S,5s,7s)-5-hydroxy-2-adamantyl]amino}-1H-pyrrolo[2,3-b]pyridine-5-carboxamide monohydrate, reference compound]
- Solubility [2]: < 10000 µg/mL
- Change of crystal on storage ([1]; no humidity at 70° C.): transition to an anhydride in a free form

Structure (SMILES): Cl.NC(=O)c1cnc2[nH]ccc2c1N[C@@H]1[C@@H]2C[C@@H]3C[C@H]1C[C@@](O)(C3)C2 [Form A33, 4-{[(1R,2s,3S,5s,7s)-5-hydroxy-2-adamantyl]amino}-1H-pyrrolo[2,3-b]pyridine-5-carboxamide monohydrochloride]
- LC: total amount of the related substances ([1]; 70° C. 2 W, Table 3): 0.48%
- LC: total amount of the related substances ([1]; 70° C. 75% RH 2 W, Table 3): 0.48%
- LC: total amount of the related substances ([1]; Initial, Table 3): 0.49%
- LC: total amount of the related substances ([1]; Xe lump 40H, Table 3): 0.79%

Structure (SMILES): Cl.NC(=O)c1cnc2[nH]ccc2c1N[C@@H]1[C@@H]2C[C@@H]3C[C@H]1C[C@@](O)(C3)C2.O [Form A34, 4-{[(1R,2s,3S,5s,7s)-5-hydroxy-2-adamantyl]amino}-1H-pyrrolo[2,3-b]pyridine-5-carboxamide monohydrochloride hydrate]
- LC: total amount of the related substances ([1]; 70° C. 2 W, Table 3): 0.10%
- LC: total amount of the related substances ([1]; 70° C. 75% RH 2 W, Table 3): 0.10%
- LC: total amount of the related substances ([1]; Initial, Table 3): 0.10%
- LC: total amount of the related substances ([1]; Xe lump 40H, Table 3): 0.30%
